Data published in patent US20160128980A1, “METHODS OF TREATING CKD USING PREDICTORS OF FLUID RETENTION” (AbbVie Inc., priority 2014, published 2016).
Read-outs that look alike come from different tables or passages of the source.

Columns and labels:
[1] = test system: subjects with type 1 diabetes and proteinuria not receiving RAS inhibitors; assay: Study M96-499, Phase 2 cross-over study of atrasentan; type: in vivo, human
Source text: The most commonly experienced treatment-emergent adverse events in the atrasentan group were peripheral edema (64%), pulmonary edema (18%), rhinitis (36%) and headache (18%), whereas in the placebo group there was no peripheral edema, but there were reports of rhinitis (11%) and headache (56%).

[2] = test system: subjects with type 2 diabetes and albuminuria on stable doses of RAS inhibitors; assay: Study M10-815, Phase 2a placebo controlled study of atrasentan; type: in vivo, human; settings: for reduction in the mean UACR from baseline: placebo 11%; for subjects with mild to moderate peripheral edema: placebo 9%
Experimental: In a Phase 2a double-blind, randomized, placebo controlled study (referred to herein as M10-815), subjects with type 2 diabetes and albuminuria who were on stable doses of RAS inhibitors were administered atrasentan HCl at 0.25, 0.75 or 1.75 mg QD for 8 weeks.

[3] = test system: patients with type 2 diabetic nephropathy; assay: Two Phase 2b 12 week placebo-controlled studies of atrasentan in residual albuminuria; type: in vivo, human; settings: for Linear regression coefficient, hemoglobin response: hemoglobin change after two weeks; for Linear regression coefficient, weight response: weight change after two weeks
Experimental: Two Phase 2b, multicenter, prospective, randomized, double-blinded, placebo-controlled, 12 week studies were conducted to evaluate the efficacy and safety of atrasentan compared to placebo in reducing residual albuminuria. Atrasentan was studied at doses of 0.75 mg QD and 1.25 mg QD. The study methodologies were the identical, but for the location. (NCT01356849 in U.S., Canada, and Taiwan; NCT10424319 in Japan). Additional clinical details can be found in Kohan, D E, et al., “Predictors of Atrasentan-Associated Fluid Retention and Change in Albuminuria in Patients with Diabetic Nephropathy,” Clin J Am Soc Nephrol, September 2015, 10:1568-1574, which is hereby incorporated by reference in its entirety. Observations in body weight changes and hemoglobin changes may be used as surrogate markers for changes in fluid retention. Demographic parameters were similar between the placebo and atrasentan 0.75 and 1.25 mg/d arms (Table 1). The following abbreviations are used within the table: BNP=B-type natriuretic peptide; DBP=diastolic blood pressure; eGFR=estimated glomerular filtration rate; HbA1c=glycated hemoglobin; RAS=renin-angiotensin system; SBP=systolic blood pressure; UACR=urinary albumin to creatinine ratio. Table 1 is reproduced in part from de Zeeuw D, et al., The endothelin antagonist atrasentan lowers residual albuminuria in patients with type 2 diabetic nephropathy. J Am Soc Nephrol 25: 1083-1093, 2014, which is hereby incorporated by reference in its entirety. Values within Table 1 are mean±standard deviation unless stated otherwise. The abbreviations used in Table 3 include BP=blood pressure; eGFR=estimated glomerular filtration rate; HbA1c=glycated hemoglobin; HOMA=homeostatic model assessment. The following covariates were included in the initial backward selection model: treatment assignment, age, gender, body weight, Hb, eGFR, albuminuria, systolic blood pressure (BP), eGFR, log transformed homeostatic metabolic assessment (HOMA) product, log-transformed B-type natriuretic peptide (BNP), thiazide and loop-diuretic use. Systolic blood pressure and atrasentan dose were not included in the final logistic regression models for body weight and hemoglobin, respectively.

[4] = test system: individuals with a systolic blood pressure above 140 mmHg receiving at least three blood-pressure-lowering drugs; settings: cited from earlier work
CHF = settings: at higher doses; cited from earlier work
[5] = test system: participants with type 2 diabetes and overt diabetic nephropathy; settings: cited from earlier work; for median decrease of UACR: median follow-up 4 months, placebo 9.7%; for discontinuation of trial medications due to adverse events: placebo 1.5%; for deaths: placebo 12
patients with acute CHF = settings: intravenous, doses greater than 1 mg/hr; cited from earlier work
[6] = 1-10 mg/day; cited from earlier work
[7] = test system: congestive heart failure (CHF); settings: within the first 4-8 weeks; thought to be a consequence of fluid retention; cited from earlier work
[8] = cited from earlier work
[9] = 0.75 mg/day vs. placebo, after two weeks
[10] = 0.75 mg/day, Recovery (30 days)
[11] = 1.25 mg/day vs. placebo, after two weeks
[12] = 1.25 mg/day, Recovery (30 days)
[13] = after 14 weeks, 50, 100 or 300 mg once daily, non-dose-dependent

CCCCN(CCCC)C(=O)CN1C[C@H](c2ccc3c(c2)OCO3)[C@@H](C(=O)O)[C@@H]1c1ccc(OC)cc1 [Atrasentan, (2R,3R,4S)-4-(1,3-benzodioxol-5-yl)-1-[2-(dibutylamino)-2-oxoethyl]-2-(4-methoxyphenyl)pyrrolidine-3-carboxylic acid]
mean arterial blood pressure (BP) ([1]; 5 mg QD): reduced | pulmonary edema, treatment-emergent adverse event ([1]; 5 mg QD): 18% | peripheral edema, treatment-emergent adverse event ([1]; 5 mg QD, none in placebo): 64% | rhinitis, treatment-emergent adverse event ([1]; 5 mg QD, placebo 11%): 36% | headache, treatment-emergent adverse event ([1]; 5 mg QD, placebo 56%): 18% | reduction in urinary albumin excretion ([1]; 5 mg daily (QD)): 65% | reduction in the mean UACR from baseline ([2]; 0.25 mg QD for 8 weeks, non-significant, P=0.291): 21% | subjects with mild to moderate peripheral edema ([2]; 0.25 mg QD): 14% | reduction in the mean UACR from baseline ([2]; 0.75 mg QD for 8 weeks, 1-sided P=0.023): 42% | subjects with mild to moderate peripheral edema ([2]; 0.75 mg QD): 18% | reduction in the mean UACR from baseline ([2]; 1.75 mg QD for 8 weeks, 1-sided P=0.073): 35% | subjects with mild to moderate peripheral edema ([2]; 1.75 mg QD): 46% | Logistic regression association with ≧1.3 g/dl fall in Hb [3, 9]: no significant association | Logistic regression odds ratio (95% CI), ≧2 kg weight gain [3, 9]: 3.0 (1.0-8.5) | Linear regression coefficient, hemoglobin response ([3]; 0.75 mg/day vs. placebo): −0.7 | Linear regression coefficient, weight response ([3]; 0.75 mg/day vs. placebo): 0.8 | BNP, median ([3]; 0.75 mg/day, Baseline): 33.0 pg/mL | Hemoglobin, Mean (SD) ([3]; 0.75 mg/day, Baseline): 12.9 (1.5) g/dL | UACR, median ([3]; 0.75 mg/day, Baseline): 878 mg/g | Weight, Mean (SD) ([3]; 0.75 mg/day, Baseline): 87.1 (22.1) kg | Hemoglobin, Mean (SD) [3, 10]: 12.4 (1.5) g/dL | UACR, median [3, 10]: 1051 mg/g | Weight, Mean (SD) [3, 10]: 85 (23) kg | Hemoglobin, Mean (SD) ([3]; 0.75 mg/day, Week 2): 12.0 (1.5) g/dL | UACR, median ([3]; 0.75 mg/day, Week 2): 573 mg/g | Weight, Mean (SD) ([3]; 0.75 mg/day, Week 2): 88.0 (22.2) kg | UACR, median ([3]; 0.75 mg/day, Week 6): 636 mg/g | Weight, Mean (SD) ([3]; 0.75 mg/day, Week 6): 87.3 (21.8) kg | BNP, median ([3]; 0.75 mg/day, Week 12): 33.1 pg/mL | Hemoglobin, Mean (SD) ([3]; 0.75 mg/day, Week 12): 11.8 (1.6) g/dL | UACR, median ([3]; 0.75 mg/day, Week 12): 521 mg/g | Weight, Mean (SD) ([3]; 0.75 mg/day, Week 12): 87.3 (22.3) kg | Logistic regression odds ratio (95% CI), ≧1.3 g/dL hemoglobin fall [3, 11]: 5.6 (2.5-12.7) | Logistic regression odds ratio (95% CI), ≧2 kg weight gain [3, 11]: 6.6 (2.3-18.6) | Linear regression coefficient, hemoglobin response ([3]; 1.25 mg/day vs. placebo): −1.0 | Linear regression coefficient, weight response ([3]; 1.25 mg/day vs. placebo): 1.3 | BNP, median ([3]; 1.25 mg/day, Baseline): 33.5 pg/mL | Hemoglobin, Mean (SD) ([3]; 1.25 mg/day, Baseline): 12.9 (1.8) g/dL | UACR, median ([3]; 1.25 mg/day, Baseline): 826 mg/g | Weight, Mean (SD) ([3]; 1.25 mg/day, Baseline): 88.3 (18.4) kg | Hemoglobin, Mean (SD) [3, 12]: 12.5 (1.9) g/dL | UACR, median [3, 12]: 727 mg/g | Weight, Mean (SD) [3, 12]: 88 (19) kg | Hemoglobin, Mean (SD) ([3]; 1.25 mg/day, Week 2): 11.8 (1.8) g/dL | UACR, median ([3]; 1.25 mg/day, Week 2): 515 mg/g | Weight, Mean (SD) ([3]; 1.25 mg/day, Week 2): 89.4 (18.7) kg | UACR, median ([3]; 1.25 mg/day, Week 6): 461 mg/g | Weight, Mean (SD) ([3]; 1.25 mg/day, Week 6): 89.6 (19.0) kg | BNP, median ([3]; 1.25 mg/day, Week 12): 37.0 pg/mL | Hemoglobin, Mean (SD) ([3]; 1.25 mg/day, Week 12): 11.8 (1.8) g/dL | UACR, median ([3]; 1.25 mg/day, Week 12): 470 mg/g | Weight, Mean (SD) ([3]; 1.25 mg/day, Week 12): 89.0 (19.2) kg | body weight increase ([3]; after 2 weeks of treatment, placebo decreased approximately 1 kg): approximately 1 kg | hemoglobin (Hb) decrease ([3]; both atrasentan groups after 2 weeks, persisted throughout treatment): approximately 1 g/dl | Hb after treatment discontinuation ([3]; by 30 days after treatment discontinuation): normalized | change in B-natriuretic peptide (BNP) ([3]; patients who received atrasentan): no significant change

COc1cc(OC)nc(O[C@H](C(=O)O)C(OC)(c2ccccc2)c2ccccc2)n1 [darusentan]
reduction in diastolic clinic seated blood pressure compared with placebo [4, 13]: ~5 mmHg | reduction in systolic clinic seated blood pressure compared with placebo [4, 13]: about 10 mmHg | patients discontinuing because of fluid retention or peripheral edema ([4]; combined darusentan treatment groups): 2% | patients with edema and/or fluid retention reported ([4]; darusentan groups combined, placebo 14%): 27% | patients with cardiac-related serious adverse events ([4]; patients taking darusentan): five | worsening of CHF (CHF): tended to worsen CHF

COc1ccccc1Oc1c(NS(=O)(=O)c2ccc(C)cn2)nc(-c2ccncc2)nc1OC [avosentan]
median decrease of UACR ([5]; 25 mg): 44% | discontinuation of trial medications due to adverse events ([5]; 25 mg): 19.69% | deaths ([5]; 25 mg): 21 | median decrease of UACR ([5]; 50 mg): 49% | discontinuation of trial medications due to adverse events ([5]; 50 mg): 18.2% | deaths ([5]; 50 mg): 17

COc1ccccc1Oc1c(NS(=O)(=O)c2ccc(C(C)C)cn2)nc(-c2ccnc(-c3nnn[nH]3)c2)nc1OCCO [tezosentan]
urine output (patients with acute CHF): reduced urine output

COC(c1ccccc1)(c1ccccc1)[C@H](Oc1nc(C)cc(C)n1)C(=O)O [Ambrisentan]
edema incidence [6]: 25%

COc1ccccc1Oc1c(NS(=O)(=O)c2ccc(C(C)(C)C)cc2)nc(-c2ncccn2)nc1OCCO [Bosentan]
worsening of congestive heart failure [7]: associated with early worsening of congestive heart failure (CHF)

Cc1cc2c(cc1CC(=O)c1sccc1S(=O)(=O)Nc1onc(C)c1Cl)OCO2 [Sitaxsentan]
edema ([8]; higher doses): significantly causes edema | edema ([8]; lower doses (100 or 300 mg daily)): less tendency to cause edema
